The results in this text go back to patent US10759792B2, “CaMKII inhibitors and uses thereof” (The Johns Hopkins University, priority 2014, dated 2020).

For the assay, the target named is CaMKIIδ (Homo sapiens (Human), UniProt Q13557). The assay can be described thus: In vitro CaMKIIδ activity assay (coupled assay measuring ADP released, peptide substrate AC3). Conditions: full length C-terminal His/Gln tagged CaMKIIδ construct, 16 nM enzyme, 25° C., duplicate. In kind it is biochemical. On the procedure:
An exemplary procedure for the in vitro CaMKIIδ inhibition assay, which can be used to determine the inhibitory action of compounds of the invention toward CaMKII, follows. The procedure is taken from Chao L H, et al., (2010) Nat Struct Mol Biol. 17(3): 264-272, which is incorporated herein by reference in its entirety.
The inhibition of CaMKII activity was evaluated using a coupled assay measuring ADP released following ATP hydrolysis and phosphor-transfer to the peptide substrate AC3 (KKALHRQETVDAL; SEQ ID NO: 1) (1). A full length, C-terminal His/Gln tagged CaMKIIδ construct was used (sequence in Table 3 below).
Compounds were added in 5 uL volume to wells in UV transparent 96-well plates (½ area well size). The final compound concentrations tested ranged from 0.5 nM to 10 uM). Assays were performed in duplicate. CaMKIIδ is added to at a final concentration of 16 nM to a mixture containing 100 mM Tris (pH 7.5), 150 mM KCl, 0.27 mM EGTA, 1.3 mM PEP, 0.2 mg/ml AC3, 6.9% (v/v) PK/LDH mixture (Sigma P0294), 0.38 mM NADH and kept on ice. 72 uL of the enzyme mixture was added to the wells containing compounds and the plate was shaken briefly and kept on ice. The assay was initiated by adding 23 uL of a mixture containing 100 mM Tris (pH 7.5), 150 mM KCl, 1.7 mM CaCl2, 48 mM MgCl2, 0.35 mM ATP and 6.7 ug/mL calmodulin. The rate of ADP released was measured as the rate of absorbance decrease at […] at 25° C. and plotted against the log of the compound concentration (FIG. 1). IC50 data were fitted using GraphPad Prism software.

SMILES strings stand for the structures.

By IC50 is commonly meant the concentration needed to halve the response being measured. On to `Clc1ccncc1-c1ccnc2[nH]c3ccccc3c12` [Compound 8p], for which the IC50 was ≥ 1 µM.
In the case of `c1ccc2c(c1)[nH]c1nccc(-c3cc[nH]c3)c12` [Compound 8q], the IC50 fell in the range of 0.25 to 1 µM.
For the compound `Clc1cnccc1-c1ccnc2[nH]c3ccccc3c12` [Compound 8r], the IC50 is ≥ 1 µM.
On to `c1ccc2c(c1)[nH]c1nccc(-c3cncc(N4CCNCC4)c3)c12` [Compound 9a], for which the IC50 fell in the range of 0.25 to 1 µM.
Then `c1ccc2c(c1)[nH]c1nccc(-n3cc(C4CCNCC4)nn3)c12` [Compound 9e], with ≥ 1 µM; and `C(=C\c1ccnc2[nH]c3ccccc3c12)/CN1CCNCC1` [Compound 9h], with ≥ 1 µM; and `c1cc(-c2ccnc3[nH]c4ccccc4c23)nc(N2CCNCC2)c1` [Compound 9j], with ≤ 0.05 µM.
Regarding `c1ccc2c(c1)[nH]c1nccc(-c3cnc(N4CCNCC4)s3)c12` [Compound 9k], the IC50 is ≥ 1 µM.
The value for `Cc1nn(C2CCNCC2)cc1-c1ccnc2[nH]c3ccccc3c12` [Compound 9l] was ≥ 1 µM; that for `c1ccc2c(c1)[nH]c1nccc(-c3cnn(C4CCNCC4)c3)c12` [Compound 9m] was ≥ 1 µM.
The value for `C(#Cc1ccnc2[nH]c3ccccc3c12)CN1CCNCC1` [Compound 9n] was 0.25 to 1 µM.
Regarding `C(=C/c1ccnc2[nH]c3ccccc3c12)/CN1CCNCC1` [Compound 9o], the IC50 was ≥ 1 µM.
Turning to `c1cc(-c2ccnc3[nH]c4ccccc4c23)cc(-n2ccnc2)c1` [Compound I-2, 4-(3-(1H-imidazol-1-yl)phenyl)-9H-pyrido[2,3-b]indole], the IC50 was ≥ 1 µM.
With `NCc1cccc(-c2ccnc3[nH]c4ccccc4c23)c1` [Compound I-3], the IC50 was ≥ 1 µM.
On to `NCCNc1cccc(-c2ccnc3[nH]c4ccccc4c23)c1` [Compound I-7, N1-(3-(9H-pyrido[2,3-b]indol-4-yl)phenyl)ethane-1,2-diamine], for which the IC50 is ≤ 0.05 µM.
Then `NCCOc1cccc(-c2ccnc3[nH]c4ccccc4c23)c1` [Compound I-9, 2-(3-(9H-pyrido[2,3-b]indol-4-yl)phenoxy)ethanamine], with ≤ 0.05 µM; and `NCCCOc1cccc(-c2ccnc3[nH]c4ccccc4c23)c1` [Compound I-10, 3-(3-(9H-pyrido[2,3-b]indol-4-yl)phenoxy)propan-1-amine], with ≤ 0.05 µM; and `COc1ccc2c(c1)[nH]c1nccc(-c3cccc(NCCN)c3)c12` [Compound I-12, N1-(3-(7-methoxy-9H-pyrido[2,3-b]indol-4-yl)phenyl)ethane-1,2-diamine], with ≤ 0.05 µM.
Then `Cc1ccc2[nH]c3nccc(-c4cccc(NCCN)c4)c3c2c1` [Compound I-13, N1-(3-(6-methyl-9H-pyrido[2,3-b]indol-4-yl)phenyl)ethane-1,2-diamine], with ≤ 0.05 µM; and `NCCNc1cccc(-c2ccnc3[nH]c4ccc(Cl)cc4c23)c1` [Compound I-14, N1-(3-(6-chloro-9H-pyrido[2,3-b]indol-4-yl)phenyl)ethane-1,2-diamine], with ≤ 0.05 µM.
